In patent publication US20090275610A1, “TRICYCLIC OPIOID MODULATORS” (priority 2005, published 2009):
Where two headings read alike, the source gives them in different places.

Experiments:
delta opioid receptor = molecular target: T1, delta opioid receptor (Rattus norvegicus, UniProt P33533); test: Rat brain delta opioid receptor binding assay; settings: rat forebrain membranes, [3H]DPDPE or [3H]naltrindole, 25° C., 2.5 h
T1 construct: the forebrains were homogenized in Tris buffer in a Teflon®-glass homogenizer; from tissue; host or cells: forebrain of male Wistar rats (particulate membrane preparation)
T1 sequence (P33533 whole entry): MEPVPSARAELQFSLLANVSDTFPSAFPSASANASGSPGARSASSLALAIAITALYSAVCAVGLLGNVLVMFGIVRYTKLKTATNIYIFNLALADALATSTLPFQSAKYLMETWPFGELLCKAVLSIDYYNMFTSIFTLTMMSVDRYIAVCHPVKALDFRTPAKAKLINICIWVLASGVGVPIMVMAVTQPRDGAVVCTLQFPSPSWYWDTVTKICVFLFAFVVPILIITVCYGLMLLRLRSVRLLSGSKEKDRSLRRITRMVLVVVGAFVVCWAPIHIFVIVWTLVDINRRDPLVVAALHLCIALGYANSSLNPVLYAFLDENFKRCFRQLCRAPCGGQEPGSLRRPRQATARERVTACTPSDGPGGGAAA
Experimental: Rat Brain Delta Opioid Receptor Binding Assay
(§1) Procedure: Male, Wistar rats (150-250 g, VAF, Charles River, Kingston, N.Y.) were killed by CO2, and their brains removed and placed immediately in ice cold Tris HCl buffer (50 mM, pH 7.4). The forebrains were separated from the remainder of the brain by a coronal transection, beginning dorsally at the colliculi and passing ventrally through the midbrain-pontine junction. After dissection, the forebrains were homogenized in Tris buffer in a Teflon®-glass homogenizer. The homogenate was diluted to a concentration of 1 g of forebrain tissue per 80 mL Tris and centrifuged at 39,000×g for 10 min. The pellet was resuspended in the same volume of Tris buffer containing 5 mM MgCl2 with several brief pulses from a Polytron homogenizer. This particulate preparation was used for the delta opioid binding assays.
(§2) Analysis: The data from the scintillation counter were used to calculate either the % inhibition compared to control binding (when only a single concentration of test compound was evaluated) or a Ki value (when a range of concentrations was tested). Percent inhibition was calculated as: [(total dpm−test compound dpm)/(total dpm−nonspecific dpm)]*100. Kd and Ki values were calculated using GraphPad PRISM data analysis program.

mu opioid receptor = molecular target: T2, mu opioid receptor (Rattus norvegicus, UniProt P33535); test: Rat brain mu opioid receptor binding assay; settings: rat forebrain membranes, [3H]DAMGO, 25° C., 2.5 h
T2 construct: the forebrains were homogenized in Tris buffer in a Teflon®-glass homogenizer; from tissue; host or cells: forebrain of male Wistar rats (particulate membrane preparation)
T2 sequence (P33535 whole entry): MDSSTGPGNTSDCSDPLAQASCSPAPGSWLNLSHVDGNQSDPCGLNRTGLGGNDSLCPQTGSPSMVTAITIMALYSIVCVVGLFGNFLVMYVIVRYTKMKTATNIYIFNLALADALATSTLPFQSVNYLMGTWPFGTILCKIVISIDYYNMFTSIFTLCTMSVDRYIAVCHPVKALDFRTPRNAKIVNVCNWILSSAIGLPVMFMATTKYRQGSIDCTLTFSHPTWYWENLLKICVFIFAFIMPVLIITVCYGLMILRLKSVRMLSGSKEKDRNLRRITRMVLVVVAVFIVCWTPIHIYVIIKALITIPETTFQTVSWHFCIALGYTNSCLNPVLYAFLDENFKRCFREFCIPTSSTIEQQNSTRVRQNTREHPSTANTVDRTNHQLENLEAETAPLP
Experimental: Rat Brain Mu Opioid Receptor Binding Assay
as §1
as §2, with “concentrations” for “concentrations was”

[1] = molecular target: T3, delta opioid receptor (NG108-15 cell membranes) (Mus musculus, UniProt P32300); test: [35S]GTPγS binding assay in NG108-15 cell membranes (delta opioid); format: biochemical; settings: read-out: delta GTPγS binding EC50
T3 construct: NG108-15 cell membranes were purchased from Applied Cell Sciences (Rockville, Md.); host or cells: NG108-15 cell membranes (purchased)
T3 sequence (P32300 whole entry): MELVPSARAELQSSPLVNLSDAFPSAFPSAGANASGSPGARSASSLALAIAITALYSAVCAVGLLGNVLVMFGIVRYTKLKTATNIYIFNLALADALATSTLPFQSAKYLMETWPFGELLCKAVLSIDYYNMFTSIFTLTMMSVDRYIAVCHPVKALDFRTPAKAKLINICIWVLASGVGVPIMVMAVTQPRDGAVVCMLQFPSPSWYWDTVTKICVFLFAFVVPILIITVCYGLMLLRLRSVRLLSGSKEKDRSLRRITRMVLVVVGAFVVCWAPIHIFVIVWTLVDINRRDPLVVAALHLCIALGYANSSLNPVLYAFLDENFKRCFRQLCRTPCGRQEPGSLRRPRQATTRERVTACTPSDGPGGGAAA
Experimental: Functional Assay: [^35S]GTPγS Binding Assay in NG108-15 Cell Membranes (Delta Opioid)
Methods: NG108-15 cell membranes were purchased from Applied Cell Sciences (Rockville, Md.). A sample (8 mg/mL) of membrane protein suspended in 10 mM TRIS-HCl pH 7.2, 2 mM EDTA, 10% sucrose. Membranes were maintained at 4-8° C. A 1 mL volume of membranes was added into 10 mL cold binding assay buffer. The assay buffer contained 50 mM Tris, pH 7.6, 5 mM MgCl2, 100 mM NaCl, 1 mM DTT and 1 mM EGTA. The membrane suspension was homogenized twice with a Polytron, and centrifuged at 3000 rpm for 10 min. The supernatant was then centrifuged at 18,000 rpm for 20 min. Ten mL assay buffer was added into the pellet containing tube. The pellet and buffer were mixed with a Polytron.
Incubation procedure: The pellet membranes (75 μg/mL) were preincubated with SPA (10 mg/mL) at 25° C. for 45 min in the assay buffer. The SPA (5 mg/mL) coupled with membranes (37.5 μg/mL) was then incubated with 0.1 nM [^35S]GTPγS in the same Tris buffer containing 100 μM GDP in total volume of 200 μL. Increasing concentrations of receptor agonists were used to stimulate [^35S]-GTPγS binding. The basal binding was tested in the absence of agonists and non-specific binding was tested in the presence of 10 μM unlabeled GTPγS. The data were analyzed on a Packard Top Count.
% of Basal=(stimulated−non specific)*100/(basal−non specific).
EC50 values were calculated using GraphPad Prism.

[2] = read-out: rDOR (Ki, nM): Rat delta opioid receptor binding constant
[3] = read-out: rMOR (Ki, nM): Rat mu opioid receptor binding constant
[4] = rDOR (Ki, nM): Rat delta opioid receptor binding constant
[5] = rMOR (Ki, nM): Rat mu opioid receptor binding constant

Question: Which results are given for `COc1cccc2c1Oc1ccccc1C2=C1CC2CCC(C1)N2` [Cpd 1]?
Answer: Ki (delta opioid receptor; [2]): 3800 nM; Ki (mu opioid receptor; [3]): 1790 nM

Question: Which Ki (delta opioid receptor; [4]) does the source give for `O=C(N1C2CCC1CC(=C1c3ccccc3Oc3c(O)cccc31)C2)C(F)(F)F` (single isomer, unassigned) [Cpd 6, 2,2,2-Trifluoro-1-[3-(4-hydroxy-xanthen-9-ylidene)-8-azabicyclo[3.2.1]oct-8-yl]-ethanone] here?
Answer: 8500 nM

Question: What about the Ki (mu opioid receptor; [5]) of the same compound?
Answer: > 10000 nM

Question: What does the source list for `O=C(Nc1ccccc1)c1cccc2c1Oc1ccccc1C2=C1CC2CCC(C1)N2` (single isomer, unassigned) [Cpd 47, 9-(8-Azabicyclo[3.2.1]oct-3-ylidene)-9H-xanthene-4-carboxylic acid phenylamide]?
Answer: Ki (delta opioid receptor; [4]): 250 nM; Ki (mu opioid receptor; [5]): 293 nM

Question: Which Ki (delta opioid receptor; [4]) does the source give for `Clc1ccc(Nc2cccc3c2Oc2ccccc2C3=C2CC3CCC(C2)N3)cc1` [Cpd 61, [9-(8-Azabicyclo[3.2.1]oct-3-ylidene)-9H-xanthen-4-yl]-(4-chlorophenyl)-amine] here?
Answer: 395 nM

Question: And the Ki (mu opioid receptor; [5])?
Answer: 3160 nM

Question: `O=C(NCCc1ccccc1)c1cccc2c1Oc1ccccc1C2=C1CC2CCC(C1)N2` (single isomer, unassigned) [Cpd 56, 9-(8-Azabicyclo[3.2.1]oct-3-ylidene)-9H-xanthene-4-carboxylic acid phenethylamide] was tested. Which Ki (delta opioid receptor; [4]) did it give?
Answer: 49.6 nM

Question: And the Ki (mu opioid receptor; [5])?
Answer: 6.96 nM

Question: And the EC50 [1]?
Answer: 40.1 nM

Question: How did the Ki (delta opioid receptor; [4]) turn out when `CN1CCC(=C2c3ccccc3Oc3c(O)cccc32)CC1` [Cpd 18, 9-(1-Methyl-piperidin-4-ylidene)-9H-xanthen-4-ol] was run?
Answer: 330 nM

Question: And the Ki (mu opioid receptor; [5])?
Answer: 4610 nM

Question: For `Oc1cccc2c1Oc1ccccc1C2=C1CC2CCC(C1)N2` (single isomer, unassigned) [Cpd 9, 9-(8-Azabicyclo[3.2.1]oct-3-ylidene)-9H-xanthen-4-ol], which Ki (delta opioid receptor; [4]) is on record?
Answer: 68.2 nM

Question: What about the Ki (mu opioid receptor; [5]) of the same compound?
Answer: 63.6 nM

Question: What does the source list for `c1cncc(Nc2cccc3c2Oc2ccccc2C3=C2CC3CCC(C2)N3)c1` [Cpd 62, [9-(8-Azabicyclo[3.2.1]oct-3-ylidene)-9H-xanthen-4-yl]-pyridin-3-yl-amine]?
Answer: Ki (delta opioid receptor; [4]): 108 nM; Ki (mu opioid receptor; [5]): 159 nM

Question: Which results are given for `O=C(NCCc1ccccc1)c1cccc2c1Oc1ccccc1C2=C1CC2CCC(C1)N2` (single isomer, unassigned) [Cpd 55, 9-(8-Azabicyclo[3.2.1]oct-3-ylidene)-9H-xanthene-4-carboxylic acid phenethylamide]?
Answer: Ki (delta opioid receptor; [4]): 100 nM; Ki (mu opioid receptor; [5]): 200 nM

Question: Which results are given for `CN(C)C(=O)c1cccc2c1Oc1ccccc1C2=C1CC2CCC(C1)N2` [Cpd 11, 9-(8-Azabicyclo[3.2.1]oct-3-ylidene)-9H-xanthene-4-carboxylic acid dimethylamide]?
Answer: Ki (delta opioid receptor; [4]): 3110 nM; Ki (mu opioid receptor; [5]): 471 nM

Question: With `NC(=O)c1cccc2c1Oc1ccccc1C2=C1C[C@H]2CC[C@@H](C1)N2C(=O)C(F)(F)F` (single isomer, unassigned) [Cpd 38, (−)-9-[8-(2,2,2-Trifluoroacetyl)-8-azabicyclo[3.2.1]oct-3-ylidene]-9H-xanthene-4-carboxylic acid amide] as the compound, how does the Ki (delta opioid receptor; [2]) read?
Answer: 6440 nM

Question: And the Ki (mu opioid receptor; [3])?
Answer: > 10000 nM

Question: With `CN(C)CCNC(=O)c1cccc2c1Oc1ccccc1C2=C1CC2CCC(C1)N2` [Cpd 15, 9-(8-Azabicyclo[3.2.1]oct-3-ylidene)-9H-xanthene-4-carboxylic acid (2-dimethylaminoethyl)-amide] as the compound, how does the Ki (delta opioid receptor; [4]) read?
Answer: 1420 nM

Question: What about the Ki (mu opioid receptor; [5]) of the same compound?
Answer: 336 nM

Question: For `N=C(NO)c1cccc2c1Oc1ccccc1C2=C1CC2CCC(C1)N2` (single isomer, unassigned) [Cpd 43, 9-(8-Aza-bicyclo[3.2.1]oct-3-ylidene)-N-hydroxy-9H-xanthene-4-carboxamidine], which Ki (delta opioid receptor; [2]) is on record?
Answer: > 10000 nM

Question: And the Ki (mu opioid receptor; [3])?
Answer: > 10000 nM

Question: How did the Ki (delta opioid receptor; [4]) turn out when `O=C(N1C2CCC1CC(=C1c3ccccc3Oc3c(O)cccc31)C2)C(F)(F)F` (single isomer, unassigned) [Cpd 5, 2,2,2-Trifluoro-1-[3-(4-hydroxy-xanthen-9-ylidene)-8-azabicyclo[3.2.1]oct-8-yl]-ethanone] was run?
Answer: 2110 nM

Question: And the Ki (mu opioid receptor; [5])?
Answer: 5620 nM

Question: What does the source list for `Oc1cccc2c1Oc1ccccc1C2=C1CC2CCC(C1)N2Cc1ccccn1` (single isomer, unassigned) [Cpd 60, 9-(8-Pyridin-2-ylmethyl-8-azabicyclo[3.2.1]oct-3-ylidene)-9H-xanthen-4-ol]?
Answer: Ki (delta opioid receptor; [4]): 0.01 nM; Ki (mu opioid receptor; [5]): 0.01 nM

Question: For `CN1C2CCC1CC(=C1c3ccccc3Oc3c(O)cccc31)C2` (single isomer, unassigned) [Cpd 52, 9-(8-Methyl-8-azabicyclo[3.2.1]oct-3-ylidene)-9H-xanthen-4-ol], which Ki (delta opioid receptor; [4]) is on record?
Answer: 323 nM

Question: What about the Ki (mu opioid receptor; [5]) of the same compound?
Answer: 1320 nM

Question: `NC(=O)c1cccc2c1Oc1ccccc1C2=C1C[C@H]2CC[C@@H](C1)N2C(=O)C(F)(F)F` (single isomer, unassigned) [Cpd 36, (+)-9-[8-(2,2,2-Trifluoroacetyl)-8-azabicyclo[3.2.1]oct-3-ylidene]-9H-xanthene-4-carboxylic acid amide] was tested. Which Ki (delta opioid receptor; [2]) did it give?
Answer: 1790 nM

Question: And the Ki (mu opioid receptor; [3])?
Answer: > 10000 nM

Question: For `Oc1cccc2c1Oc1ccccc1C2=C1CC2CCC(C1)N2Cc1cccc2cnccc12` [Cpd 35], which Ki (delta opioid receptor; [2]) is on record?
Answer: 180 nM

Question: And the Ki (mu opioid receptor; [3])?
Answer: 286 nM

Question: What does the source list for `CN1C2CCCC1CC(=C1c3ccccc3Oc3c(O)cccc31)C2` [Cpd 17, 9-(9-Methyl-9-azabicyclo[3.3.1]non-3-ylidene)-9H-xanthen-4-ol]?
Answer: Ki (delta opioid receptor; [4]): 132 nM; Ki (mu opioid receptor; [5]): 221 nM

Question: What does the source list for `Oc1cccc2c1Oc1ccccc1C2=C1CC2CCC(C1)N2Cc1ccoc1` (single isomer, unassigned) [Cpd 57, 9-(8-Furan-3-ylmethyl-8-azabicyclo[3.2.1]oct-3-ylidene)-9H-xanthen-4-ol]?
Answer: Ki (delta opioid receptor; [4]): 246 nM; Ki (mu opioid receptor; [5]): 36.5 nM

Question: How did the Ki (delta opioid receptor; [2]) turn out when `Oc1cccc2c1Oc1ccccc1C2=C1CC2CCC(C1)N2Cc1csc2ccccc12` [Cpd 33] was run?
Answer: 137 nM

Question: What about the Ki (mu opioid receptor; [3]) of the same compound?
Answer: 168 nM

Question: `c1ccc(Nc2cccc3c2Oc2ccccc2C3=C2CC3CCC(C2)N3)cc1` [Cpd 64, [9-(8-Azabicyclo[3.2.1]oct-3-ylidene)-9H-xanthen-4-yl]-phenylamine] was tested. Which Ki (delta opioid receptor; [4]) did it give?
Answer: 862 nM

Question: What about the Ki (mu opioid receptor; [5]) of the same compound?
Answer: 2420 nM

Question: Which results are given for `Oc1cccc2c1Oc1ccccc1C2=C1CC2CCC(C1)N2Cc1ccccn1` (single isomer, unassigned) [Cpd 59, 9-(8-Pyridin-2-ylmethyl-8-azabicyclo[3.2.1]oct-3-ylidene)-9H-xanthen-4-ol]?
Answer: Ki (delta opioid receptor; [4]): 0.07 nM; Ki (mu opioid receptor; [5]): 0.39 nM

Question: Which Ki (delta opioid receptor; [4]) does the source give for `Oc1cccc2c1Oc1ccccc1C2=C1CC2CCC(C1)N2Cc1cccnc1` (single isomer, unassigned) [Cpd 49, 9-(8-Pyridin-3-ylmethyl-8-azabicyclo[3.2.1]oct-3-ylidene)-9H-xanthen-4-ol] here?
Answer: 62.6 nM

Question: And the Ki (mu opioid receptor; [5])?
Answer: 443 nM

Question: Which Ki (delta opioid receptor; [4]) does the source give for `COC(=O)c1cccc2c1Oc1ccccc1C2=C1CC2CCC(C1)N2C(=O)C(F)(F)F` [Cpd 7, 9-[8-(2,2,2-Trifluoroacetyl)-8-azabicyclo[3.2.1]oct-3-ylidene]-9H-xanthene-4-carboxylic acid methyl ester] here?
Answer: > 10000 nM

Question: And the Ki (mu opioid receptor; [5])?
Answer: > 10000 nM

Question: What does the source list for `N=C(NO)c1cccc2c1Oc1ccccc1C2=C1CC2CCC(C1)N2` (single isomer, unassigned) [Cpd 42, 9-(8-Aza-bicyclo[3.2.1]oct-3-ylidene)-N-hydroxy-9H-xanthene-4-carboxamidine]?
Answer: Ki (delta opioid receptor; [2]): 237 nM; Ki (mu opioid receptor; [5]): 56.5 nM

Question: With `O=C(NCc1ccccc1)c1cccc2c1Oc1ccccc1C2=C1CC2CCC(C1)N2` (single isomer, unassigned) [Cpd 53, 9-(8-Azabicyclo[3.2.1]oct-3-ylidene)-9H-xanthene-4-carboxylic acid benzylamide] as the compound, how does the Ki (delta opioid receptor; [4]) read?
Answer: 1130 nM

Question: What about the Ki (mu opioid receptor; [5]) of the same compound?
Answer: 2030 nM
